Among the data in US20260001864A1, “COMPOUND CONTAINING SULFAMIDE STRUCTURE, AND PREPARATION METHOD THEREFOR AND APPLICATION THEREOF, AND PHARMACEUTICAL COMPOSITION AND APPLICATION” (Nanjing Shuohui Pharmatechnology Co., Ltd, priority 2021, published 2026) are IC50 values, retold here.

Structures are written as SMILES. Counter-ions that a name gives are not always drawn.

Sequence of H+/K+-ATPase (rabbit gastric mucosal microsomes) (P27112 whole entry): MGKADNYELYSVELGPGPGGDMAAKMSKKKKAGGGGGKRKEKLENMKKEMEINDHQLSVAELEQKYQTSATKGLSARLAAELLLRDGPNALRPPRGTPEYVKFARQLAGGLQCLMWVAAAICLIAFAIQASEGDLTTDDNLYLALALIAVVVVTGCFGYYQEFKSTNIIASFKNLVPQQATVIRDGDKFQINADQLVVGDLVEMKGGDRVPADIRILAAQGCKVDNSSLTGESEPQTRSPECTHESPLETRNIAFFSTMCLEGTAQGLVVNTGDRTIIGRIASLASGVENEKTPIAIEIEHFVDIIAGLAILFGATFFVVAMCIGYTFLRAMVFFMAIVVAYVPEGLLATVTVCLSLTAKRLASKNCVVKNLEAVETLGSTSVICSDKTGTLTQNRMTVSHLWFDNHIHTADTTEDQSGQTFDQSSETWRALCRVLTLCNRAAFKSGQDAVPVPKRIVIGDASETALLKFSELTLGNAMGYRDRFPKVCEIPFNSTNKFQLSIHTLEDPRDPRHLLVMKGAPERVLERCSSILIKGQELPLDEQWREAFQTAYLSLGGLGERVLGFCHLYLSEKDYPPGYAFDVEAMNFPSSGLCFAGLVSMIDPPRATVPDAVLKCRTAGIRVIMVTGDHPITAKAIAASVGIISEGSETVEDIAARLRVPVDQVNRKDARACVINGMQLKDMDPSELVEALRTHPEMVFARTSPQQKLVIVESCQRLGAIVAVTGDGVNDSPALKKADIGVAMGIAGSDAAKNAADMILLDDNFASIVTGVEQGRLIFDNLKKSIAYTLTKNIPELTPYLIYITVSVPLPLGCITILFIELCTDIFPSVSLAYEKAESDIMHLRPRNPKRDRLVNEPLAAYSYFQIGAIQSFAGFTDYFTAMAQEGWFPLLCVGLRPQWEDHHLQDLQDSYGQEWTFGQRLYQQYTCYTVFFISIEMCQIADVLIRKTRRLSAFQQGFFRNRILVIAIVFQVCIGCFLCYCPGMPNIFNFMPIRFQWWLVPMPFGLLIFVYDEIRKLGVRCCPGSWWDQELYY
Sequence of H+/K+-ATPase (rabbit gastric mucosal microsomes) (P18597 whole entry partner): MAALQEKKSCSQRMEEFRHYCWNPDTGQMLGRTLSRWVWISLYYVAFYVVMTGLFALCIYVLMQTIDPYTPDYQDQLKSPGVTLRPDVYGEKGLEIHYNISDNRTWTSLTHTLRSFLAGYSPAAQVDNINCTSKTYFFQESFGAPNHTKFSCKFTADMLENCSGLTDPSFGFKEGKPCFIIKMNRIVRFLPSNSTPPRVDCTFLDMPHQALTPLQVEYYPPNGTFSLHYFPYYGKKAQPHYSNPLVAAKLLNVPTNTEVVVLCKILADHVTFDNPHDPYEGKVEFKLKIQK

The assay addresses H+/K+-ATPase (rabbit gastric mucosal microsomes) (Oryctolagus cuniculus (Rabbit), UniProt P27112). Briefly: In vitro screening test of H+/K+-ATPase inhibition (malachite green). The class given is biochemical. As to conditions: pH 6.5, 37° C. 30 min, read-out: IC50, inhibitory effect on H+/K+-ATPase activity. From the text: This test example evaluates the inhibitory effects of the compounds of the present invention on the activity of H+/K+-ATPase by an in vitro screening test, and expresses them with the IC50 values of the compounds (obtained by calculating the inhibition rates at different concentrations).
• Compound solutions: The products (i.e., the compounds or the hydrochloride salt of compounds) obtained in the foregoing preparation examples of the present invention were each independently dissolved in DMSO to form solutions at suitable concentrations; • Buffer I: 50 mmol/L HEPEs-Tris, pH=6.5, 5 mmol/L magnesium chloride, […] valinomycin (J&K Scientific Ltd., goods No.: 227304); • Buffer II: 50 mmol/L HEPEs-Tris, pH=6.5, 5 mmol/L magnesium chloride, […] valinomycin, 5 mmol/L potassium chloride; • 5-adenosine triphosphate (ATP, Sigma-Aldrich, goods No.: A2383) solution: Dilute ATP with buffer I to 5 mM; • Malachite green solution: Dissolve 0.12 wt % malachite green (J&K Scientific Ltd., goods No.: 913120) in 2.5 mol/L sulfuric acid, 7.5 wt % ammonium molybdate (J&K Scientific Ltd., goods No.: 128321) and 11% Tween 20(V/V). During use, sulfuric acid, ammonium molybdate and Tween 20 are mixed in a ratio of 100:25:2; • Rabbit gastric mucosal microsomes (rich in H+/K+-ATPase, self-extracted), extracted by sucrose gradient centrifugation: The rabbit stomach was washed with tap water and 3M NaCl solution, respectively, and then the surface water was removed with filter paper. A pre-cooled homogenization buffer (4 ml/g tissue) was added and homogenized for 2-5 min in a tissue homogenizer. After the homogenizing, if there are large tissue particles, they can be removed by centrifugation (600 g, 10 min). The supernatant was then transferred to a clean centrifuge tube and centrifuged at 20,000 g for 30 min, then the supernatant was transferred to a clean centrifuge tube and further centrifuged at 100,000 g for 90 min and the precipitate was collected; the precipitate was suspended in homogenate and blown evenly, and the protein concentration was measured by the Bradford's method and adjusted to 10 mg/ml; 7.5 wt % Ficoll's layering solution was added in equal proportions. After centrifugation at 100,000 g for 60 min, the middle layer (H^+/K^+-ATPase-enriched gastric membranes) was collected in a clean centrifuge tube, diluted with homogenate by 4-5 times, and then centrifuged at 100,000 g for another 90 min, and the precipitate was collected; the precipitate was suspended in homogenate and homogenized in a glass homogenizer, and the protein concentration was measured by the Bradford's method and adjusted to 22.5 mg/ml. It was frozen at −80° C. and stored for future use.
5 μL of rabbit gastric mucosal microsomes (H^+/K^+-ATPase) was added to 45 μL of buffer II, then 5 μL of compound solution was added, and then 5 μL of 5 mM ATP solution was added to start the reaction and pre-react at 37° C. for 30 min. 15 μL of malachite green solution was added to terminate the reaction, balancing was conducted at room temperature for 20 min, and read the optical absorbance at 620 nm.
Meanwhile, the reaction of the same volume was carried out without addition of potassium chloride as a background, which was subtracted when calculating enzymatic activity.
With `CNCc1cc(-c2ccc(OC[C@@H]3COCCO3)cc2F)n(S(=O)(=O)c2cccnc2)c1` [Compound 1, (S)-1-(5-(4-((1,4-dioxane-2-yl)methoxy)-2-fluorophenyl)-1-(pyridine-3-ylsulfonyl)-1H-pyrrole-3-yl)-N-methyl methylamine hydrochloride], the IC50 worked out at 585 nM.

In the case of `CNCc1cc(-c2ccc(OCC3CCC3)cc2F)n(S(=O)(=O)c2cccnc2)c1` [Compound 2], the IC50 was 24.5 nM.

Turning to `CNCc1cc(-c2ccc(OCC3CCCC3)cc2F)n(S(=O)(=O)c2cccnc2)c1` [Compound 3], the IC50 worked out at 20.9 nM.

As to `CNCc1cc(-c2ccc(OCC3CCCCC3)cc2F)n(S(=O)(=O)c2cccnc2)c1` [Compound 4], the IC50 stood at 30.9 nM.

As to `CNCc1cc(-c2ccc(OCC3CCC(F)(F)CC3)cc2F)n(S(=O)(=O)c2cccnc2)c1` [Compound 5], the IC50 came to 82.4 nM.

On to `CNCc1cc(-c2ccc(OCC3CCCCO3)cc2F)n(S(=O)(=O)c2cccnc2)c1` (stereo not shown) [Compound 7], for which the IC50 came out at 254 nM.

For `CNCc1cc(-c2ccc(OC(C)C3CCOCC3)cc2F)n(S(=O)(=O)c2cc(F)cc(F)c2)c1` (stereo not shown) [Compound 9], the IC50 came out at 25.4 nM.

Consider `CNCc1cc(-c2ccc(OC(C)C3CCOCC3)cc2F)n(S(=O)(=O)c2cccc(C(F)(F)F)c2)c1` (stereo not shown) [Compound 10], for which the IC50 was found to be 55.3 nM.

Consider `CNCc1cc(-c2ccc(OC(C)C3CCOCC3)cc2F)n(S(=O)(=O)c2ccc(C)c(F)c2)c1` (stereo not shown) [Compound 11], for which the IC50 was determined as 65.2 nM.

Take `CNCc1cc(-c2ccc(OC(C)C3CCOCC3)cc2F)n(S(=O)(=O)c2cc(F)ccc2F)c1` (stereo not shown) [Compound 12]: the IC50 was determined as 138 nM.

With `CNCc1cc(-c2ccc(OC(C)C3CCOCC3)cc2F)n(S(=O)(=O)c2cccc(C#N)c2)c1` (stereo not shown) [Compound 13], the IC50 came out at 114 nM.

In the case of `CNCc1cc(-c2ccc(OC(C)C3CCOCC3)cc2F)n(S(=O)(=O)c2cccc(OCCOC)c2)c1` (stereo not shown) [Compound 14, 1-(5-(2-fluoro-4-(1-(tetrahydro-2H-pyran-4-yl)ethoxy)phenyl)-1-((3-(2-methoxyethoxy)phenyl)sulfonyl)-1H-pyrrol-3-yl)-N-methylmethylamine-hydrochloride], the IC50 came to 443 nM.

Take `CNCc1cc(-c2ccc(OC(C)C3CCOCC3)cc2F)n(S(=O)(=O)c2cccc(OC)c2)c1` (stereo not shown) [Compound 15]: the IC50 amounted to 83.9 nM.

As for `CNCc1cc(-c2ccc(OC(C)C3CCOCC3)cc2F)n(S(=O)(=O)c2c(F)cccc2F)c1` (stereo not shown) [Compound 16], the IC50 stood at 253 nM.

On to `CNCc1cc(-c2ccc(OC(C)C3CCOCC3)cc2F)n(S(=O)(=O)c2ccc(F)cc2F)c1` (stereo not shown) [Compound 17], for which the IC50 amounted to 265 nM.

For the molecule `CNCc1cc(-c2ccc(OC(C)C3CCOCC3)cc2F)n(S(=O)(=O)c2ccc(C#N)cc2)c1` (stereo not shown) [Compound 18], the IC50 amounted to 262 nM.

Take `CNCc1cc(-c2ccc(OC(C)C3CCOCC3)cc2F)n(S(=O)(=O)c2cccc(F)c2)c1` (stereo not shown) [Compound 19]: the IC50 is 233 nM.

Turning to `CNCc1cc(-c2ccc(OC(C)C3CCCCC3)cc2F)n(S(=O)(=O)c2cccnc2)c1` (stereo not shown) [Compound 20], the IC50 came out at 294 nM.

Regarding `CNCc1cc(-c2ccc(OCC3CCNCC3)cc2F)n(S(=O)(=O)c2cccnc2)c1` [Compound 21], the IC50 is 2790 nM.

`CNCc1cc(-c2ccc(OCC3CCN(C)CC3)cc2F)n(S(=O)(=O)c2cccnc2)c1` [Compound 22]: the IC50 stood at 458 nM.

As for `CNCc1cc(-c2ccc(OCC3CCN(C(C)=O)CC3)cc2F)n(S(=O)(=O)c2cccnc2)c1` [Compound 23], the IC50 was found to be 908 nM.

Take `CNCc1cc(-c2ccc(OCC3CCOCC3)cc2F)n(S(=O)(=O)c2cccc(F)c2)c1` [Compound 24]: the IC50 worked out at 136 nM.

Regarding `CNCc1cc(-c2ccc(OCC3CCOCC3)cc2F)n(S(=O)(=O)c2cccc(Cl)c2)c1` [Compound 25], the IC50 was determined as 58.5 nM.

Regarding `CNCc1cc(-c2ccc(OCC3CCOCC3)cc2F)n(S(=O)(=O)c2ccc(C)c(F)c2)c1` [Compound 26], the IC50 came out at 202 nM.

Regarding `CNCc1cc(-c2ccc(OCC3CCOCC3)cc2F)n(S(=O)(=O)c2cc(F)cc(F)c2)c1` [Compound 27], the IC50 is 38.7 nM.

Regarding `CNCc1cc(-c2ccc(OCC3CCOCC3)cc2F)n(S(=O)(=O)c2ccc(C#N)cc2)c1` [Compound 29], the IC50 was 290 nM.

As to `CNCc1cc(-c2ccc(OCC3CCOCC3)cc2F)n(S(=O)(=O)c2cccc(OCCF)c2)c1` [Compound 30], the IC50 was determined as 474 nM.

As for `CCCCCOc1cccc(S(=O)(=O)n2cc(CNC)cc2-c2ccc(OCC3CCOCC3)cc2F)c1` [Compound 31], the IC50 was determined as 1210 nM.

For the molecule `CNCc1cc(-c2ccc(OCC3CCOCC3)cc2F)n(S(=O)(=O)c2cccc(OCCCOC)c2)c1` [Compound 32], the IC50 is 822 nM.

In the case of `CNCc1cc(-c2ccc(OC(C)C3CCOCC3)cc2F)n(S(=O)(=O)c2cccc(OCC3CCC3)c2)c1` (stereo not shown) [Compound 33], the IC50 amounted to 883 nM.

As to `CNCc1cc(-c2ccc(OCC3CCOCC3)cc2F)n(S(=O)(=O)c2cccc(OCC3CCCC3)c2)c1` [Compound 34], the IC50 was 285 nM.

Take `CNCc1cc(-c2ccc(OCC3CCCCC3)cc2F)n(S(=O)(=O)c2cccc(OCCF)c2)c1` [Compound 35]: the IC50 is 8650 nM.

Turning to `CCCCCOc1cccc(S(=O)(=O)n2cc(CNC)cc2-c2ccc(OCC3CCCCC3)cc2F)c1` [Compound 36], the IC50 was 2270 nM.

Turning to `CNCc1cc(-c2ccc(OC(C)C3CCOCC3)cc2F)n(S(=O)(=O)c2cccc(OCCCCOC)c2)c1` (stereo not shown) [Compound 38], the IC50 came out at 199 nM.

`CNCc1cc(-c2ccc(OCC3CCOCC3)cc2F)n(S(=O)(=O)c2cccc(C(F)(F)F)c2)c1` [Compound 39]: the IC50 came out at 34.6 nM.

For `CNCc1cc(-c2ccc(OC)cc2F)n(S(=O)(=O)c2cccnc2)c1` [Compound 40], the IC50 was 123 nM.

`CCOc1ccc(-c2cc(CNC)cn2S(=O)(=O)c2cccnc2)c(F)c1` [Compound 41]: the IC50 was determined as 567 nM.

Consider `CNCc1cc(-c2ccc(OCC(F)F)cc2F)n(S(=O)(=O)c2cccnc2)c1` [Compound 42], for which the IC50 came to 401 nM.

In the case of `CNCc1cc(-c2ccc(OCCCOC)cc2F)n(S(=O)(=O)c2cccnc2)c1` [Compound 43], the IC50 came to 482 nM.

Turning to `CNCc1cc(-c2ccc(OCC(C)C)cc2F)n(S(=O)(=O)c2cccnc2)c1` [Compound 44], the IC50 stood at 500 nM.

For `CNCc1cc(-c2ccc(OCC(C)(C)C)cc2F)n(S(=O)(=O)c2cccnc2)c1` [Compound 45], the IC50 turned out to be 204 nM.

Take `CCNCc1cc(-c2ccc(OCC3CCOCC3)cc2F)n(S(=O)(=O)c2cccnc2)c1` [Compound 46]: the IC50 is 639 nM.

In the case of `CNCc1cc(-c2ccc(OC(C)C3CCOCC3)c(F)c2)n(S(=O)(=O)c2cccnc2)c1` (stereo not shown) [Compound 47], the IC50 was determined as 247 nM.

`CNCc1cc(-c2ccc(OC[C@H]3CO3)cc2F)n(S(=O)(=O)c2cccnc2)c1` [Compound 49]: the IC50 came out at 146 nM.

As to `CNCc1cc(-c2ccc(OC[C@@H]3CO3)cc2F)n(S(=O)(=O)c2cccnc2)c1` [Compound 50], the IC50 is 114 nM.

As for `CNCc1cn(S(=O)(=O)c2cccnc2)c(-c2ccc(OCC3CC3)cc2F)c1F` [Compound 51], the IC50 came out at 35.2 nM.

On to `CNCc1cc(-c2ccc(OCC(C)(C)O)cc2F)n(S(=O)(=O)c2cccnc2)c1` [Compound 52], for which the IC50 turned out to be 372 nM.

With `CNCc1cc(-c2ccc(OC[C@@H]3C[C@@H]3F)cc2F)n(S(=O)(=O)c2cccnc2)c1` [Compound 53], the IC50 was 56.1 nM.

For `CNCc1cc(-c2ccc(OCc3cc(F)ccc3F)cc2F)n(S(=O)(=O)c2cccnc2)c1` [Compound 54], the IC50 was determined as 17.8 nM.

For `CNCc1cc(-c2ccc(OCc3ccc(F)cc3F)cc2F)n(S(=O)(=O)c2cccnc2)c1` [Compound 55], the IC50 is 8.6 nM.

On to `CNCc1cc(-c2ccc(OCc3c(F)cccc3F)cc2F)n(S(=O)(=O)c2cccnc2)c1` [Compound 56], for which the IC50 stood at 13.3 nM.

`CNCc1cc(-c2ccc(OCc3ccc(F)c(F)c3)cc2F)n(S(=O)(=O)c2cccnc2)c1` [Compound 57]: the IC50 turned out to be 46.3 nM.
